Assay results: patent US6197818A, “Drug for treating diabetic nephrosis” (Nanjing General Hospital of Nanjing Command, PLA, priority 1999, dated 2001)

Columns and labels:
SD rats = test: acute toxicity, half lethal dose (LD50); format: in vivo; conditions: natural product
[1] = acute toxicity, half lethal dose (LD50); format: in vivo; conditions: rat, in vivo; SD rats
[2] = tested on: Diabetic animal model of rat; test: Suppression of renal hypertrophy by rhein in experimental diabetic rats (streptozotocin); format: in vivo, SD rats; conditions: for blood glucose level / Kidney Index (kidney weight/body weight ratio) / Kidney Volume / Kidney Weight: rhein-treated 2 mg/Kg/day; for Kidney Index (kidney weight/body weight ratio) / Kidney Volume / Kidney Weight: 12th week
Description: The concentration of rhein is 0.2 g/L.
Rats were made diabetic by an intra-abdominal injection of Streptozotocin (Sigma Chemical Co.; in 0.1 mmol/L citrate buffer, pH 4.5) in a dose of 25 mg/Kg/day for 5 days.
(§1) The observation was focused on the changes of kidney weight and volume in diabetic rats treated by rhein.

[3] = tolerability of oral rhein in volunteers; format: in vivo, human volunteers
Description: Of the thirty-six volunteers given rhein at dose of 200 mg/day (100 mg, b.i.d) for 3 days, only 5 persons experience gastro-intestinal disorders. Diarrhea occurred twice or thrice a day in three of these persons, and four times in only one person.

diabetic nephropathy = test: Clinical trial of rhein on diabetic nephropathy; format: in vivo, human diabetic patients
Description: Twenty-five diabetic patients diagnosed according to the standard of WHO where enrolled in this study. The fast blood glucose levels were above 250 mg/100 ml in these patients. Diabetic nephropathy was confirmed morphologically by renal biopsy, or with measurement of urinary protein or albumin excretion in each patient.
A yellow powder supplied in capsula containing 25 mg rhein. The dosage of 100 mg per day (50 mg twice a day) rhein was given orally as therapy. All patients were followed at regular intervals for measurement of serum creatinine values and urinary protein or albumin excretion at least for 3 months.

[4] = solubility and stability of rhein; format: physicochemical
Description: It remains steady in room temperature for more than one year. The general formula of rhein or the salt thereof is shown as the following: [drawing 2]

[5] = pharmacokinetic study of oral rhein, blood level; format: in vivo, human (volunteers)
Description: The blood level of rhein still kept at 200 to 500 ng/ml at 24th hour in volunteers.

[6] = tested on: Diabetic animal model of rat; test: Suppression of renal hypertrophy by sodium rheinate in experimental diabetic rats (streptozotocin); format: in vivo, SD rats; conditions: for blood glucose level / Kidney Index (kidney weight/body weight ratio) / Kidney Weight: treated 1 mg/Kg/day Rhein-Na; for Kidney Index (kidney weight/body weight ratio) / Kidney Weight: 12th week
Description: Drug: aqueous solution of sodium rheinate at concentration of 0.1 g/L for oral
Diabetic animal model of rat: Adult female SD rats (Experimental Animal Center, Jinling Hospital, Nanjing) with body weights of 200 to 250 grams were used. Rats were made diabetic by an intra-abdominal injection of Streptozotocin (Sigma Chemical Co.; in 0.1 mmol/L citrate buffer, pH 4.5) in a dose of 25 mg/Kg/day for 5 days. Only rats with blood glucose level within the range of 13 to 25 mmol/L were recognized as the establishment of the diabetic mode.
as §1
The experiment was designed as the following:
Normal rats Diabetic rats
Control treated Control treated
Dosage of Rhein-Na, 0 1 0 1
Distilled water, ml/Kg/day 5 5 5 5

[7] = tested on: kidney damage caused by diabetes; conditions: cited from earlier work
[8] = diabetic rats, 1 week after diabetic
[9] = diabetic rats, 4 weeks after diabetic
[10] = diabetic rats, pre-diabetic (baseline)
[11] = experimental diabetic rats, oral
[12] = of thirty-six volunteers, 200 mg/day (100 mg, b.i.d) for 3 days
[13] = Treatment after 3 months, 100 mg per day
[14] = of twenty-five, 100 mg per day, three months
[15] = patients treated with rhein, 100 mg per day

O=C(O)c1cc(O)c2c(c1)C(=O)c1cccc(O)c1C2=O [rhein]
toxicity (in words) (SD rats): low toxicity and safe for therapy | LD50 [1]: 3200 mg/kg | kidney index (in words) ([2]; diabetic rats): decrease the kidney index (kidney weight/body weight ratio) obviously | renal hypertrophy (in words) ([2]; diabetic rats): able to control or suppress renal hypertrophy | blood glucose level [2, 8]: 20.32 mmol/L | blood glucose level [2, 9]: 19.77 mmol/L | blood glucose level ([2]; diabetic rats, 8 weeks after diabetic): 21.00 mmol/L | Kidney Index (kidney weight/body weight ratio) ([2]; diabetic rats): 4.76 ×10^-3 | Kidney Volume ([2]; diabetic rats): 0.834 mL | Kidney Weight ([2]; diabetic rats): 0.93 grams | blood glucose level ([2]; diabetic rats, 12 weeks after diabetic): 19.32 mmol/L | blood glucose level [2, 10]: 6.23 mmol/L | hyperglycemia (in words) [2, 11]: controlled or reduced effectively | blood glucose level ([2]; normal rats, 1 week): 5.92 mmol/L | blood glucose level ([2]; normal rats, 4 weeks): 5.66 mmol/L | blood glucose level ([2]; normal rats, 8 weeks): 6.07 mmol/L | Kidney Index (kidney weight/body weight ratio) ([2]; normal rats): 4.04 ×10^-3 | Kidney Volume ([2]; normal rats): 0.804 mL | Kidney Weight ([2]; normal rats): 0.72 grams | blood glucose level ([2]; normal rats, 12 weeks): 6.22 mmol/L | blood glucose level ([2]; normal rats, pre-diabetic): 6.12 mmol/L | persons experiencing gastro-intestinal disorders [3, 12]: 5 persons | persons with diarrhea four times a day [3, 12]: one | persons with diarrhea twice or thrice a day [3, 12]: three | gastro-intestinal reactions (in words) ([3]; oral route, volunteers): not marked gastro-intestinal reactions | gastro-intestinal reactions as vomiting, diarrhea et al. (diabetic nephropathy; 100 mg per day): None | share of patients with obvious decrement of urinary protein excretion (diabetic nephropathy; 18 of twenty-five, 100 mg per day, three months): 72% | Change of urinary protein excretion: Decrease of 25% (diabetic nephropathy; [13]): 5 No. | Change of urinary protein excretion: Decrease of 50% (diabetic nephropathy; [13]): 9 No. | Change of urinary protein excretion: Decrease of 75% (diabetic nephropathy; [13]): 4 No. | Change of urinary protein excretion: No change (diabetic nephropathy; [13]): 7 No. | tolerability (in words) (diabetic nephropathy; all patients, 100 mg per day): tolerated | urinary albumin excretion (in words) (diabetic nephropathy; diabetic nephropathy patients): ameliorate the urinary albumin excretion significantly | urinary protein excretion (in words) (diabetic nephropathy; diabetic patients): could decrease the urinary protein excretion | patients with no change or increase of urinary protein excretion (diabetic nephropathy; [14]): seven | patients with obvious decrement of urinary protein excretion (diabetic nephropathy; [14]): 18 patients | Blood routine test (diabetic nephropathy; [15]): normal | liver function and renal function (diabetic nephropathy; [15]): no liver function abnormally and deterioration of renal function | solubility in organic solvent ([4]; organic solvent): soluble in organic solvent | stability (remains steady) ([4]; room temperature): more than one | solubility in water ([4]; water): soluble slightly in water | concentration at 24 h ([5]; human, blood, po, 24th hour, volunteers, single dose of 200 mg): 200 to 500 ng/mL | time to peak blood level ([5]; one single dose of 200 mg, health man): one and half hours to three | absorption from gastro-intestinal trace ([5]; oral): easily absorbed | maintenance of blood concentration ([5]; oral): maintains for a longer period

O=C(O)c1cc(O)c2c(c1)C(=O)c1cccc(O)c1C2=O [sodium rheinate]
blood glucose level [6, 8]: 21.82 mmol/L | blood glucose level [6, 9]: 19.97 mmol/L | Kidney Index (kidney weight/body weight ratio) ([6]; diabetic rats): 5.68 ×10^-3 | Kidney Weight ([6]; diabetic rats): 0.71 grams | blood glucose level [6, 10]: 6.17 mmol/L | hyperglycemia (in words) [6, 11]: controlled or reduced effectively | blood glucose level ([6]; normal rats, 1 week): 6.52 mmol/L | blood glucose level ([6]; normal rats, 4 weeks): 6.48 mmol/L | Kidney Index (kidney weight/body weight ratio) ([6]; normal rats): 4.34 ×10^-3 | Kidney Weight ([6]; normal rats): 0.59 grams | blood glucose level ([6]; normal rats, pre-diabetic): 6.06 mmol/L

insulin: the main medicament for its treatment is insulin at present
effect on urinary glucose [7]: can decrease the urinary glucose | effect on kidney damage caused by diabetes ([7]; such as renal hypertrophy): no therapeutic effect
